These results are taken from US9745305B2, “Modulators of methyl modifying enzymes, compositions and uses thereof” (Constellation Pharmaceuticals, Inc., priority 2013, dated 2017).

The structures appear in SMILES notation.

The target of one test is EZH2 (Homo sapiens, UniProt Q15910). The test can be described thus: EZH2 Assay (3H SAM methyl transfer, rPRC2, FlashPlate). It is filed as biochemical. To be noted: rPRC2, biotinylated oligonucleosomes, 0.2 μM 3H SAM, 2 nM EZH2. Put shortly: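 rPRC2 (2 nM EZH2) was preincubated 20 min with compound (80 to 0.16 μM, 10 points), then reacted 60 min with 0.2 μM ³H-SAM, 0.2 μM biotinylated oligonucleosomes and 3.6 μM H3K27me3 peptide at pH 8.5. Methylated product was captured on SAV FlashPlates and counted, and IC50 came from a 4-parameter fit.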

For test [1], the system named is H3K27me3 mark in Hela cells expressing wild type EZH2. The test can be described thus: H3K27me3 Alpha Hela Assay (AlphaLISA). It is filed as cell-based. To be noted: Homo sapiens, 72 hrs, read-out: H3K27me3_Alpha_HeLa (EC50). The procedure:
H3K27me3 Alpha Hela Assay (AlphaLISA). Ten different doses of each test compound (in a series of 3-fold dilutions) were plated in duplicate 384-well tissue culture treated plates (Catalog #781080; Greiner Bio One; Monroe, N.C.). Hela cells grown in culture were trypsinized and counted using a Countess® cell counter (Catalog # C10281; Life Technologies, Grand Island, N.Y.). Cell were diluted to 67,000 cells per mL in 10% DMEM (Catalog #10569-010 Life Technologies, Grand Island, N.Y.) and 15 μL (1,000 cells) were plated into each well using the Biotek MicroFlo™ Select Dispenser (BioTek Instruments, Inc. Vermont, USA),) of the 384-well plate. Plates were incubated at 37° C./5% CO2 for 72 hrs. One of the duplicate plates was processed for HeLa assay and the other for viability.
To the plate processed for AlphaLISA was added 5 μL per well Cell-Histone Lysis buffer (1×) (Catalog # AL009F1 Perkin Elmer; Waltham, Mass.) and the plate was incubated at RT for 30 minutes on a plate shaker with low speed (Model#4625-Q Thermo Scientific; Waltham, Mass.). Then, 10 μL per well Histone Extraction buffer (catalog # AL009F2; Perkin Elmer; Waltham, Mass.) was added and the plate further incubated at RT for 20 min on plate shaker with low speed. To each well was then added 10 μL per well of a 5× mix of anti-K27me3 acceptor beads plus Biotinylated anti-Histone H3 (C-ter) Antibody (diluted to 3 nM final) (Catalog #AL118 Perkin Elmer; Waltham, Mass.). Dilution of the acceptor beads and then anti-Histone H3 was with 1× Histone Detection buffer (Catalog # AL009F3 Perkin Elmer; Waltham, Mass.) which was produced diluted from the 10× stock provided. The plate was sealed with an aluminum plate sealer and incubated at 23° C. for 60 min. We then added 10 μL 5× solution of Streptavidin Donor beads (Catalog #6760002 Perkin Elmer; Waltham, Mass.) (20 μg/mL final in 1× Histone Detection Buffer), sealed the plate with Aluminum plate sealer and incubated at 23° C. for 30 min. The plates were then read using an EnVision-Alpha Reader (model #2104 Perkin Elmer; Waltham, Mass.).
Data from both assays was analyzed using Assay Assistant (Constellation Pharmaceuticals In-house product) and Activity Base (IDBS Ltd, Surrey, UK) template. Data files were imported to Assay Assistant and assay conditions were specified. A unique Analysis ID was created and the data files exported to Activity Base. An analysis template was created on Activity Base to measure dose-dependent inhibition of H3K27me3 mark and cell viability respectively. Readout of DMSO wells were used to normalize the data. Resulting curves were fitted using Activity base software Model 205 (IDBS Ltd, Surrey, UK). The data was checked for quality, validated and integrated in excel format using SARview (IDBS Ltd, Surrey, UK).

Sequence of EZH2 (Q15910 whole entry): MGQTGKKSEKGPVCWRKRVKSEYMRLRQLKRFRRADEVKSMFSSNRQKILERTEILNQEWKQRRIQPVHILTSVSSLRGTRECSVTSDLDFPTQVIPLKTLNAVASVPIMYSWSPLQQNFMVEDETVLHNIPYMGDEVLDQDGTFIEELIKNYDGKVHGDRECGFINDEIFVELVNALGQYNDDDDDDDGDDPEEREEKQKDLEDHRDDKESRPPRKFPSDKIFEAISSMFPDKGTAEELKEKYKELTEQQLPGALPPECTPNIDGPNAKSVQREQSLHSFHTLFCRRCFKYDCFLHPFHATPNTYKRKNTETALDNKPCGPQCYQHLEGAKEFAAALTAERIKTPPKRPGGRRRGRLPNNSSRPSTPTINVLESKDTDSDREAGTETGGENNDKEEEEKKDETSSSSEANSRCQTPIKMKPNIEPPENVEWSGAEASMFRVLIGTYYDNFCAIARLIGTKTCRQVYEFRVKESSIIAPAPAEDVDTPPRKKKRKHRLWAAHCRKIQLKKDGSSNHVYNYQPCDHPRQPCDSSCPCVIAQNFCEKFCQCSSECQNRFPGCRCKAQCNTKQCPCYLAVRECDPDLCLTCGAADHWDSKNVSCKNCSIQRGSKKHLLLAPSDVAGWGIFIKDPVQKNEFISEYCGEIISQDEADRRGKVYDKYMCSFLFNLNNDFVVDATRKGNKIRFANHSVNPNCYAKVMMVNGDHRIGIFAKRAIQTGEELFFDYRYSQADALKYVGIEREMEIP
Sequence of EZH2 (O75530 whole entry partner): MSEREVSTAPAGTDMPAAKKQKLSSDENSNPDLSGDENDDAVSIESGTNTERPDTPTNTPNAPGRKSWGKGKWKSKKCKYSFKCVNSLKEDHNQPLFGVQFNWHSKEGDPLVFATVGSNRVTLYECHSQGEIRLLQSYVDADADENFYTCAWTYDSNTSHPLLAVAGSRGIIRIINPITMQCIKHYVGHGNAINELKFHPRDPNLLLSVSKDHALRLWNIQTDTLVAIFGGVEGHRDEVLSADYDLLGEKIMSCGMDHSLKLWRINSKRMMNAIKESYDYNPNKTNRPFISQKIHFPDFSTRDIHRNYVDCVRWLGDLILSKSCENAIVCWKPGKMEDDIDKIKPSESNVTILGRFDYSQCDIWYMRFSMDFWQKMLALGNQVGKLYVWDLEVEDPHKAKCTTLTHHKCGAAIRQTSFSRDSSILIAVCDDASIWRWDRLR
Sequence of EZH2 (Q15022 whole entry partner): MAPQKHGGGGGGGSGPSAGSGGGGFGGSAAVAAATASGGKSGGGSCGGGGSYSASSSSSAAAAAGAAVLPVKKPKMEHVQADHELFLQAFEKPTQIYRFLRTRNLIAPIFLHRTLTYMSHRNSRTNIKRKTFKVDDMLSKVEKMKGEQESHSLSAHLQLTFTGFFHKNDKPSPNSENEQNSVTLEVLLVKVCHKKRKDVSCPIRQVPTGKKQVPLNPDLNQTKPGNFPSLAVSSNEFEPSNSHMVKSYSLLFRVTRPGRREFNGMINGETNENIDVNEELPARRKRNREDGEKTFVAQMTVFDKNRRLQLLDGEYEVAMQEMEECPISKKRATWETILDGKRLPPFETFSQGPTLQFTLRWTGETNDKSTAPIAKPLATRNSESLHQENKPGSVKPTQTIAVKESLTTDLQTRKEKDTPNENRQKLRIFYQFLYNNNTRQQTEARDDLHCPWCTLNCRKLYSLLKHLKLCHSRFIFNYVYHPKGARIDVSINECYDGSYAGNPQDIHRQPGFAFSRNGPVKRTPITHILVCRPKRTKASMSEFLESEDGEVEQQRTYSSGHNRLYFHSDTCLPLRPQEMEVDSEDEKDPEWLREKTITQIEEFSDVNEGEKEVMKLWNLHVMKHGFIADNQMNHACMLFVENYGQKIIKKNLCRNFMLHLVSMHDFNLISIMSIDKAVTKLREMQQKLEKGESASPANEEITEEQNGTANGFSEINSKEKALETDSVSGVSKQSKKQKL

The term IC50 denotes the point on the concentration scale where inhibition reaches its midpoint. Low readings indicate greater potency, high ones weaker potency. As usually defined, the EC50 is the concentration giving half of the maximal effect. In turn, `COc1cc(C)[nH]c(=O)c1CNC(=O)c1c(C)c(C(C)c2ccccc2)n2ncccc12` (racemic) [Compound 101, (±)-N-((4-methoxy-6-methyl-2-oxo-1,2-dihydropyridin-3-yl)methyl)-6-methyl-7-(1-phenylethyl)pyrrolo[1,2-b]pyridazine-5-carboxamide] registered an IC50 against EZH2 of less than 100 nM. For the same compound, in test [1], the 50% effective concentration (EC50) is less than 400 nM.

In turn, `COc1cc(C)[nH]c(=O)c1CNC(=O)c1c(C)c(C(C)C2CCOCC2)n2ncccc12` (racemic) [Compound 116, (±)-N-((4-methoxy-6-methyl-2-oxo-1,2-dihydropyridin-3-yl)methyl)-6-methyl-7-(1-(tetrahydro-2H-pyran-4-yl)ethyl)pyrrolo[1,2-b]pyridazine-5-carboxamide] showed an IC50 against EZH2 of less than 100 nM. The EC50 in test [1] is less than 400 nM.

For `COc1cc(C)[nH]c(=O)c1CNC(=O)c1c(C)c(C(C)c2ccccc2)n2ncccc12` (single isomer, unassigned) [Compound 105, (R or S)-N-((4-methoxy-6-methyl-2-oxo-1,2-dihydropyridin-3-yl)methyl)-6-methyl-7-(1-phenylethyl)pyrrolo[1,2-b]pyridazine-5-carboxamide], on EZH2, the IC50 is less than 100 nM. Also, in test [1], the EC50 was less than 400 nM.
